From US8609718B2, “Pharmaceutical composition used in treatment of hyperproliferative skin conditions and malignant melanomas comprising pachastrissamine as active ingredient” (Catholic University Industry Academy Cooperation Foundation, priority 2009, dated 2013)

Columns and labels:
FoxO3a = assay: Western blotting of FoxO3a protein expression in HaCaT; type: cell-based, human; conditions: for level of protein expression of FoxO3a, single material: treated as in Example 3-2, compared to negative control, FIG. 4E
Procedure: A HaCaT cell line was cultured in the same manner as described in Example 1. […] Then, western blotting was carried out by using FoxO3a antibody as a primary antibody.
Then, western blotting was carried out by using FoxO3a antibody as a primary antibody so as to carry out comparative analysis on the level of protein expression.

ERK = assay: Western blotting of ERK activity (pERK) in HaCaT; type: cell-based, human; conditions: pachastrissamine 10 μg/ml, U0126 20 nM, 30 minutes, FIG. 3C
Procedure: A HaCaT cell line was cultured in the same manner as described in Example 1. […] The last group was a negative control group (−) and was added with nothing.

FoxO3a / beta-catenin = conditions: U0126, 30 minutes, FIG. 5C
Procedure: In a HaCaT cell line, pachastrissamine's effect on FoxO3a protein which can be degraded over-expression of beta-catenin was researched. In the same manner as described in Example 1, the HaCaT cell line was cultured. The cultured cells were transfected with beta-catenin so as to induce over-expression of beta-catenin. The cultured cells were plated onto a 6-well plate at a concentration of 3×10^5 cells/well and cultured for 24 hours. After the culturing, after about 12 hours of serum starvation, cells with over-expression of beta-catenin and other cells with transfection of vector were treated with U0126 (ERK inhibitor), and reacted for 30 minutes.

HaCaT cell = assay: Phase-contrast microscope morphology analysis of surviving cells; type: cell-based, human; conditions: lithium chloride only, 300 nM; 24 hours; FIG. 2D
Procedure: HaCaT, B16F10 and A375 cell lines were cultured in the same manner as described in Example 1. The cultured HaCaT cell line was plated onto a 60 mm plate at a concentration of 5×10^4 cells/well, and cultured in a CO2 incubator (37° C., 5%) for 24 hours. The cultured respective cells were divided into 4 groups. One group was added with only pachastrissamine (PA) at a concentration of 10 μg/ml; another group was added with lithium chloride (apoptosis inhibiting material) (at a final concentration of 300 nM) as well as pachastrissamine at a concentration of 10 μg/ml (PA+Li); and a third group was added with only lithium chloride (Li). The last group was a negative control group (Con) and was added with nothing. These groups were cultured in a CO2 incubator (37° C., 5%) for 24 hours, and then the number of cells were measured in the same manner as described in Example 2-2.
The four groups of HaCaT cell samples were washed with PBS, and then surviving cells were subjected to morphology analysis through a phase-contrast microscope (see FIG. 2f).

GSK3-beta / beta-catenin = assay: Western blotting of pGSK3-beta, GSK3-beta, pCatenin and Catenin in HaCaT; type: cell-based, human; conditions: pachastrissamine 10 μg/ml, LiCl 300 nM, 30 minutes, FIG. 5A
Procedure: The pachastrissamine's effect on beta-catenin protein expression was researched. In the same manner as described in Example 1, a HaCaT cell line was cultured.

HaCaT cell line = assay: MTT cell viability analysis (cytotoxicity), HaCaT; type: cell-based, human; conditions: 0, 0.9, 1.8, 3.7, 7.5, 10 μg/ml, 24 hours, FIG. 1
Procedure: (§1) Pachastrissamine's cytotoxicity on a HaCaT cell line and a malignant melanoma cell line was researched through MTT cell viability analysis.
(§2) First, each of a HaCaT cell line (German Cancer Research, obtained from prof. N. Fuseni, Germany), and two kinds of malignant melanoma cell lines, B16F10 (B16) and A375 were inoculated into a DMEM (Dulbecco's Modified Eagle's Medium) culture medium added with 10% FBS (Thermo Fisher Scientific Inc.), 100 unit/ml penicillin, and 100 μg/ml streptomycin, and then cultured in a CO2 incubator (Form a Scientific, Inc.) (37° C., 5%).
(§3) The cultured HaCaT, B16F10, and A375 cells were plated onto a 96-well plate at a concentration of 5×10^4 cells/well, and cultured in a CO2 incubator (37° C., 5%) for 24 hours. The cells in respective wells were treated with pachastrissamine and phytosphingosine at various concentrations of 0, 0.9, 1.8, 3.7, 7.5, 10 μg/ml, and cultured in a CO2 incubator (37° C., 5%) for 24 hours. After the culturing, in a state where the culture medium existed, each well was added with 5 mg/ml MTT reagent at a concentration of 20 μl/[…], and cultured in an incubator for 2 hours. After 2 hours, the culture medium was removed, and each well was added with 150 μl of DMSO (dimethyl sulfoxide). Then, a spectrophotometer was used to measure the absorbance at 540 nm, thereby analyzing the cell viability. Herein, the cell viability was represented as a relative value with respect to 100% of cell viability in a control group not treated with pachastrissamine and phytosphingosine.

[1] = tested on: malignant melanoma cell line B16F10; assay: MTT cell viability analysis (cytotoxicity), B16F10; type: cell-based; conditions: 0, 0.9, 1.8, 3.7, 7.5, 10 μg/ml, 24 hours, FIG. 1
Procedure: as §1, §2, §3

[2] = tested on: malignant melanoma cell line A375; assay: MTT cell viability analysis (cytotoxicity), A375; type: cell-based; conditions: 0, 0.9, 1.8, 3.7, 7.5, 10 μg/ml, 24 hours, FIG. 1
Procedure: as §1, §2, §3

AKT = assay: Western blotting of AKT phosphorylation; type: cell-based; conditions: HaCaT, B16F10, A375; 10 μg/ml pachastrissamine, 5 μg/ml phytosphingosine; 30 minutes; FIGS. 3A, 3B
Procedure: HaCaT, B16F10 and A375 cell lines were cultured in the same manner as described in Example 1. […] 30 minutes later, and 60 minutes later, each of the cell lines was resuspended in RIPA buffer [12 mM EDTA, 137 mM NaCl, 20 mM Tris-HCl (pH 8.0), 1 mM Na3VO4 (Sigma-Aldrich, USA) 10 mM NaF (Sigma), 1 mM PMSF (Sigma), 1% Triton X-100, 10% glycerol, protease inhibiting cocktail (Roche, Germany)], and then put on ice for 30 minutes so that the cells can be completely lysed. The lysate was centrifuged at 14000 rpm for 30 minutes, and the supernatant was collected. A BCA protein analysis kit (Pierce, Rockford, Ill.) was used to determine the concentration of each sample, and the sample was subjected to electrophoresis (SDS-PAGE). Western blotting was carried out on the protein isolated by the electrophoresis. After electrophoresis of the sample, the protein was transferred to a polyvinylidene fluoride membrane (Pall Corporation). Then, after blocking the membrane at room temperature for one hour using 5% BSA solution (Amresco, USA), it was treated with primary antibodies and reaction was carried out for 12 hours at 4° C. The primary antibodies were AKT antibody and Actin antibody (Cell Signaling Technology, Beverly, Mass.), which are antibodies associated in cell proliferation-related signaling. After reaction with primary antibodies, it was washed for about 30 minutes and further reacted for 1 hour at room temperature by treating with HRP-conjugated secondary antibodies. Then, after washing sufficiently for over 30 minutes, protein was identified using an ECL detection kit (intron Biotechnology).

p-FoxO3a (Ser 253) = assay: Western blotting of p-FoxO3a (Ser 253); type: cell-based; conditions: HaCaT, A375, B16F10; 10 μg/ml; 30 minutes; FIGS. 4B, 4C
Procedure: In the same manner as described in Example 4-1, a HaCaT cell line and malignant melanoma cell lines (A375 and B16F10) were treated with pachastrissamine and phytosphingosine at a concentration of 10 μg/ml for 30 minutes and 60 minutes, respectively. Then, western blotting was carried out using p-FoxO3a (Ser 253) antibody.

SMILES: COc1cccc(-c2cc(=O)c3ccccc3o2)c1N [PD98059, reference compound]
- level of protein expression of FoxO3a, single material (FoxO3a): significantly increased

SMILES: N#CC(=C(/N)Sc1ccccc1N)/C(C#N)=C(\N)Sc1ccccc1N [U0126, reference compound]
- ERK activation (phosphorylation of ERK) (ERK): almost completely inhibited the phosphorylation of ERK
- level of protein expression of FoxO3a, single material (FoxO3a): significantly increased
- expression level of FoxO3a protein reduced by over-expression of beta-catenin (FoxO3a / beta-catenin; HaCaT transfected with beta-catenin): restored
- protein expression level of beta-catenin (FoxO3a / beta-catenin; HaCaT with or without over-expression of beta-catenin): no effect

SMILES: [Cl-].[Li+] [lithium chloride, reference compound]
- cell division extent (HaCaT cell): increased
- phosphorylation of GSK3-beta (GSK3-beta / beta-catenin): GSK3-beta was phosphorylated
- phosphorylation of beta-catenin (GSK3-beta / beta-catenin): inhibited the phosphorylation of beta-catenin

SMILES: CCCCCCCCCCCCCC[C@@H](O)[C@@H](O)[C@@H](N)CO [phytosphingosine, reference compound]
- cell viability (number of surviving cells) with increasing concentration (HaCaT cell line): the number of surviving cells was reduced
- cell viability (number of surviving cells) with increasing concentration [1]: the number of surviving cells was reduced
- cell viability (number of surviving cells) with increasing concentration [2]: the number of surviving cells was reduced
- phosphorylation of AKT after 30 minutes (AKT): reduction of phosphorylation of AKT
- protein expression level of FoxO3a compared to control group (FoxO3a; 5 and 10 μg/ml, 24 hours, FIG. 4A): increased
- amount of expressed p-FoxO3a after 30 minutes (p-FoxO3a (Ser 253)): reduced
